Data on 2 substances can be found in article PMC4747383, “Design of a peptidic inhibitor that targets the dimer interface of a prototypic galectin” (Oncotarget, 2015).

“Also recorded” adds a separate entry of the source. No end group written: not given here.

In series [1] the test system is Jurkat T cells. The experiment in a line: hGal-7-induced apoptosis of Jurkat T cells, PARP-1 cleavage (Western blot). It counts as cell-based. The note with it: hGal-7 pre-incubated with peptide, then Jurkat cells 4 h at 37°C, serum-free RPMI, Supplementary Fig. S3: peptide 200 μM. The protocol:
Apoptosis was measured by Western blot analysis of PARP-1 cleavage. The PACAP28–38 was used as a control. β-actin was used as a loading control. B. Flow cytometric analysis of Jurkat T cells with stained Annexin V (FL1) and propidium iodide-PI (FL3) following binding of recombinant hGal-7 with or without hGal-7(129–135). Cells in the lower right quadrant are representative of annexin V-positive/PI-negative, or early apoptotic cells. Cells in the upper right quadrant indicate annexin V-positive/PI-positive, or late apoptotic cells. C. Histogram showing the percentages of annexin V-positive Jurkat T cells obtained by adding the percentages of cells found in the lower and upper right quadrants. Results are representative of three independent experiments. Error bars represent standard deviation.
(§1) For the apoptosis tests, whole-cell extracts were homogenized and resuspended in RIPA buffer (Thermo Fisher Scientific, Rockford, IL, USA) containing protease inhibitors (Roche, Laval, QC, Canada). Equal amounts of whole-cell extracts (25 μg) were separated on SDS-PAGE and transferred onto nitrocellulose membranes (Bio-Rad Laboratories). The membranes were first blocked with 5% milk [w/v] in TBS/0.5% Tween 20 [v/v] for 1 h at room temperature and subsequently blotted overnight in a solution of TBS containing 3% BSA [w/v] and 0.5% Tween 20 [v/v]. The following antibodies were used: a rabbit anti-poly-(ADP-ribose) polymerase (PARP)-1 (p25) polyclonal antibody (1:5000; Epitomics, Burlingame, CA, USA) and a mouse anti-β-actin (1:10000; Sigma-Aldrich, St. Louis, MO, USA). Secondary antibodies consisted of horseradish peroxidase-conjugated donkey anti-rabbit (GE Healthcare, Buckinghamshire, England) and sheep anti-mouse (GE Healthcare) IgG. Detection was performed using the enhanced chemiluminescence method (GE Healthcare). […]
(§2) concentrations of recombinant human gaI-7 were pre-incubated with the hGaI-7129–135 (200 μM) prior to its addition to A. Jurkat T cells or B. PBMCs. Apoptosis wa, measured after 4 h at 37°C in serum·free conditions. […]
A general note: A western blot detects proteins with antibodies after separation by electrophoresis.

In series [2] the test system is Jurkat T cells. The experiment in a line: Apoptosis/toxicity of peptide alone on Jurkat T cells. It counts as cell-based. The following applies: for apoptosis induced by peptide alone in Jurkat T cells: 4 h at 37°C, Annexin V/PI two-color flow cytometry, three independent experiments. The protocol:
Apoptosis was measured by flow cytometry using FITC-labeled Annexin V (Biolegend, San Diego, CA, USA) and propidium iodide (PI). Briefly, the corresponding dilutions of recombinant hGal-7 and hGal-7(129–135) peptides were pre-incubated for 1 h at 4°C in serum free RPMI 1640 medium. 2.5 × 10^5 Jurkat cells were then harvested in the same medium and incubated with their corresponding dilutions at 37°C for 4 h. Cells were washed once in PBS and once in binding buffer (0.01 M HEPES, 0.14 M NaCl, 2.5 mM CaCl2, pH 7.4). Cells were then incubated for 15 min with Annexin V in the dark at room temperature. A total of 400 μL of binding buffer containing 0.25 μg/mL propidium iodide was added to the cells before analysis by flow cytometry.
Supplementary Figure S4: Inability of the control peptide (PACAP) to induce apoptosis on Jurkat T cells. Jurkat T cells wee incubated 4 h at 37°C with increasing concentrations of the control peptide PACAP before two-color flow cytometric analysis. On the left histograms, cells in the lower right quadrant are representative of annexin V-positive/PI-negative, or early apoptotic cells. Cells in the upper right quadrant indicate annexin V-positive/PI-positive, or late apoptotic cells. The right histograms show the percentages of annexin V-positive Jurkat T cells obtained by adding the percentages of cells found in the lower and upper right quadrants. Results are representative of three independent experiments. Error bars represent standard deviation.
(also on this page, place not known: www.impactjournals.com/oncotarget/ Oncotarget, Materials 2015 Supplementary) […]
In general terms: Flow cytometry measures light scatter and fluorescence of single cells or particles in a stream.

A further series has as its system PBMCs. The experiment in a line: hGal-7-induced apoptosis of PBMCs, PARP-1 cleavage (Western blot). The following applies: increasing hGal-7 pre-incubated with peptide 200 μM, 4 h at 37°C, serum-free, two independent experiments. It counts as cell-based, human. The protocol:
The Jurkat cell line was maintained in RPMI 1640 medium. The culture medium was supplemented with 10% [v/v] fetal bovine serum, 2 mmol/L L-glutamine, 10 mM HEPES buffer, and 1 mM sodium pyruvate. All cell culture products were purchased from Life Technologies (Burlington, ON, Canada). Isolation of peripheral mononuclear cell (PBMCs) was performed as previously described.
as §1, with “USA).” for “USA). Secondary antibodies consisted of horseradish peroxidase-conjugated donkey anti-rabbit (GE Healthcare, Buckinghamshire, England) and sheep anti-mouse (GE Healthcare) IgG. Detection was performed using the enhanced chemiluminescence method (GE Healthcare).”
as §2

In another series the test system is recombinant hGal-7. The experiment in a line: Solid phase fluorescent binding assay on hGal-7. More on the design: species or system human. The following applies: hGal-7 10 μg/ml coated; unlabeled peptide (1 mM) 60 min, then biotin-labeled peptide 120 min, room temperature; Streptavidin R-phycoerythrin fluorescence; three independent experiments. The text has this:
Results are representative of three independent experiments. Error bars represent standard deviation.

Details of series [3]: method as in PMID 22922050. The following applies: ref [51]; cited from earlier work.

On to “H-LDSVRIP-NH2 [hGal-7(129–135), peptide corresponding to hGal-7 segment between residues 129–135]”, for which the “inhibition of hGal-7-induced apoptosis in Jurkat T cells (PARP-1 cleavage)” value is given as “inhibited the ability of hGal-7 to induce apoptosis in Jurkat T cells; also recorded: dose-dependent” with Jurkat T cells [1] and “decreases gaI-7-induced apoptosis” in the series with Jurkat T cells [1] (listed as hGaI-7129–135). Moreover, the “apoptosis induced by peptide alone in Jurkat T cells” value in the series on Jurkat T cells [2] is on record as “did not induce apoptosis in Jurkat T cells”. In addition, the figures for the “inhibition of hGal-7-induced apoptosis in PBMCs (PARP-1 cleavage)” value in the series on PBMCs and in the series with PBMCs (listed as hGaI-7129–135) were “also observed using human peripheral blood monocytes” and “decreases gaI-7-induced apoptosis”, respectively. Besides, the “binding to immobilized hGal-7” value with recombinant hGal-7 was “direct interaction; also recorded: bind hGal-7 in a concentration-dependent and specific manner”.

For the substance “PACAP(28–38): an inactive fragment of the human Pituitary Adenylate Cyclase-Activating Polypeptide (PACAP) (GKRYKQRVKNK-NH2; ends and bridges not checked; UniProt P18509 159-169, looked up, fragment)”, the “binding of cell surface phospholipids” value in series [3] is on record as “binds cell surface phospholipids”. The “inhibition of hGal-7-induced apoptosis in Jurkat T cells (PARP-1 cleavage)” value with Jurkat T cells [1] is listed as “No such effect was observed with the control peptide”. For the same substance, in the series with Jurkat T cells [2], the “toxicity of peptide alone on Jurkat T cells” value is listed as “did not display any toxicity on Jurkat T cells alone; also recorded: minimal toxicity on the cell line”. In addition, the “apoptosis induced by peptide alone in Jurkat T cells” value is “did not induce apoptosis in Jurkat T cells; also recorded: does not induce apoptosis” with Jurkat T cells [2] and “Inability” with Jurkat T cells [2] (listed as PACAP).
